The values that follow come from patent publication US20260183269A1, “PHARMACEUTICAL COMPOSITION FOR PREVENTION OR TREATMENT OF DRUG-RELATED PEPTIC ULCER COMPRISING ZASTAPRAZAN OR PHARMACEUTICALLY ACCEPTABLE SALT THEREOF” (priority 2022, published 2026).

Data set [1] is described as follows: Clinical PK interaction, PART 1: zastaprazan and aceclofenac in healthy subjects. Format: in vivo, human (healthy subjects). The settings on record: for Cmax / AUC(0-t): human, oral; for Cmax: n = 22, plasma, mean ± SD; for AUC(0-t): plasma, n = 22, mean ± SD. The procedure: (§1) Zastaprazan may be used not only for acid-related gastric diseases but also for preventing gastric damage caused by NSAIDs.
(§2) • JP-1366, 20 mg 2 capsules (zastaprazan citrate salt 40 mg)
• Aertal tablet (aceclofenac 100 mg)
Subjects who volunteered for PART 1 were assigned a subject number on the day before the first clinical trial drug administration (−1 d) of Period 1, and then administered one aceclofenac tablet on 1 d of Period 1, administered two JP-1366 capsules on 4 d to 8 d of Period 2, and co-administered two JP-1366 capsules and one aceclofenac tablet on 9 d of Period 3. Blood samples were collected from each subject at a designated time for the PK evaluation of the clinical trial drug, and all subjects underwent safety evaluation according to the designated schedule.
(§3) Blood samples were collected at designated times for the PK evaluation of zastaprazan (JP-1366).

Data set [2] deals with rat gastric damage model induced by naproxen. Put plainly: Antiulcer activity in naproxen-induced acute peptic ulcer (gastric damage) rat model. The data set is classed as in vivo, Male Sprague-Dawley (SD) rat. The procedure:
[table] […] The dose for each individual was converted based on the body weight before administration, and is administered orally in a dosage of 5 ml per kg of body weight. […] Administration frequency and administration period: Once a day for five days (a total of 5 times) After the test, the gastric damage by the test substance was evaluated using the ulcer index. […] The removed stomach was incised along the greater curvature, the contents are removed, and the incised stomach was washed cleanly with saline solution, spread out well with a cotton swab, fixed with pins, and then photographed. The gastric damage area and the total stomach area were measured from the photographed stomach using an image program (Leica Application Suite V4), and the ulcer index was calculated as Ulcer index (%)=Damage area (mm^2)/Total area (mm^2)×100. The experimental results were statistically analyzed through Mann-Whitney analysis using a commercial statistical processing program (IBM SPSS Statistics version 25.0).

A short description of a further data set: clinical. The data set is classed as in vivo, human (healthy subjects). The procedure: as §2
Blood samples were collected from each subject at a designated time for the PK evaluation of the clinical trial drug, and all subjects underwent safety evaluation according to the designated schedule.
as §3

Data set [3] can be described thus: Safety evaluation of zastaprazan with aceclofenac, meloxicam, or naproxen in healthy subjects. Format: in vivo, human (healthy subjects). Particulars: zastaprazan 40 mg alone and co-administered with aceclofenac 100 mg, meloxicam 15 mg or naproxen 500 mg. From the text: Zastaprazan may be used not only for acid-related gastric diseases but also for preventing gastric damage caused by NSAIDs. […] Blood samples were collected from each subject at a designated time for the PK evaluation of the clinical trial drug, and all subjects underwent safety evaluation according to the designated schedule. All subjects who completed the clinical trial underwent a post-study visit on 14 d to 20 d, including vital sign measurement, physical examination, adverse reaction check, confirmation of prior/concurrent medication, clinical laboratory tests, and electrocardiography. […] Blood samples were collected from each subject at a designated time for the PK evaluation of the clinical trial drug, and all subjects underwent safety evaluation according to the designated schedule. All subjects who completed the clinical trial underwent a post-study visit on 31 d to 37 d, including vital sign measurement, physical examination, adverse reaction check, confirmation of prior/concurrent medication, clinical laboratory tests, and electrocardiography. […] Blood samples were collected from each subject at a designated time for the PK evaluation of the clinical trial drug, and all subjects underwent safety evaluation according to the designated schedule. […]

A short description of data set [4]: Clinical PK interaction, PART 2: zastaprazan and meloxicam in healthy subjects. The data set is classed as in vivo, human (healthy subjects). The procedure:
as §1, §2
• Mobic capsule 15 mg (meloxicam 15 mg)
Subjects who volunteered for PART 2 were assigned a subject number on the day before the first clinical trial drug administration (−1 d) of Period 1, and then administered two JP-1366 capsules on 1 d to 5 d of Period 1, administered one meloxicam capsule on 15 d to 19 d of Period 2, and co-administered two JP-1366 capsules and one meloxicam capsule on 22 d to 26 d of Period 3. Blood samples were collected from each subject at a designated time for the PK evaluation of the clinical trial drug, and all subjects underwent safety evaluation according to the designated schedule.
as §3

What is called Cmax is the maximum level reached in the sampled fluid or tissue. `O=C(O)COC(=O)Cc1ccccc1Nc1c(Cl)cccc1Cl` [Aceclofenac, aceclofenac, reference compound]: the highest concentration (Cmax) in data set [1] (A (aceclofenac 100 mg alone), read-out: aceclofenac Cmax, SS) turned out to be 10100 ± 3160 ng/mL; in data set [1] (Z + A (zastaprazan 40 mg and aceclofenac 100 mg), read-out: aceclofenac Cmax, SS), 11800 ± 2560 ng/mL. In addition, the AUC(0-t) in data set [1] (A (aceclofenac 100 mg alone), read-out: aceclofenac AUCT, SS) was determined as 20400 ± 4870 ng·h/mL; in data set [1] (Z + A (zastaprazan 40 mg and aceclofenac 100 mg), read-out: aceclofenac AUCT, SS), 20800 ± 3840 ng·h/mL.

Take `Cc1cccc(C)c1CNc1cc(C(=O)N2CCC2)cn2c(C)c(C)nc12.O=C(O)CC(O)(CC(=O)O)C(=O)O` [Zastaprazan, azetidin-1-yl{8-[(2,6-dimethylbenzyl)amino]-2,3-dimethylimidazo[1,2-a]pyridin-6-yl}methanone citrate salt]: in data set [2] (JP-1366 2 mg/kg oral once a day for five days with naproxen 40 mg/kg, non-fasting rats, stomach removed 4 h after last naproxen), the “ulcer area (antiulcer activity), FIG. 1” value is recorded as “rapid decrease in the ulcer area”. Besides, in data set [2] (JP-1366 2 mg/kg vs esomeprazole 2 mg/kg oral, once a day for five days with naproxen 40 mg/kg), the “antiulcer efficacy compared with esomeprazole” value is reported as “superior to that of the control substance, esomeprazole”. In addition, the AUC(0-t) in “clinical” (human, in vivo, oral, Z (zastaprazan 40 mg alone), n = 22, mean ± SD, read-out: zastaprazan AUCT, SS) was 1380 ± 695 ng·h/mL; in data set [1] (Z (zastaprazan 40 mg alone), read-out: zastaprazan AUCT, SS), 1540 ± 724 ng·h/mL; in data set [1] (Z + A (zastaprazan 40 mg and aceclofenac 100 mg), read-out: zastaprazan AUCT, SS), 1440 ± 627 ng·h/mL; in data set [4] (human, in vivo, 40 mg), 1120 ± 534 ng·h/mL. The Cmax in “clinical” (human, oral, Z (zastaprazan 40 mg alone), n = 22, plasma, mean ± SD, read-out: zastaprazan Cmax, SS) stood at 264 ± 88.5 ng/mL; in data set [1] (Z (zastaprazan 40 mg alone), read-out: zastaprazan Cmax, SS), 242 ± 84 ng/mL; in data set [4] (human, in vivo, 40 mg), 237 ± 72.8 ng/mL. Also, the “PK interaction between zastaprazan and naproxen” value in “clinical” (summary of PART 3) is given as “No clinically significant PK interactions”. Moreover, the “geometric mean ratio (GMR) [90% CI] of zastaprazan AUCT,SS” value in data set [1] (Z+A to Z) is given as 0.9490 (0.9096 to 0.9902). For the same compound, in data set [1] (Z+A to Z), the “geometric mean ratio (GMR) [90% CI] of zastaprazan Cmax,SS” value was 1.0868 (0.9554 to 1.2362). In addition, the “PK interaction between zastaprazan and aceclofenac” value in data set [1] (summary of PART 1) is given as “No clinically significant PK interactions”. In data set [3], the safety result is on record as “no safety concerns”. Also, in data set [4] (human, in vivo), the “GMR [90% CI] of zastaprazan AUCT,SS” value was 1.3332 (1.1494 to 1.5463). Also, the “PK interaction between zastaprazan and meloxicam” value in data set [4] (summary of PART 2) is recorded as “No clinically significant PK interactions”.

For `Cc1cnc(NC(=O)C2=C(O)c3ccccc3S(=O)(=O)N2C)s1` [Meloxicam, meloxicam, reference compound], the AUC(0-t) turned out to be 41800 ± 16400 ng·h/mL in data set [4] (human, in vivo, oral, M (meloxicam 15 mg alone), n = 22, mean ± SD, read-out: meloxicam AUCT, SS); 44000 ± 18800 ng·h/mL in data set [4] (human, in vivo, oral, Z + M (zastaprazan 40 mg and meloxicam 15 mg), n = 22, mean ± SD, read-out: meloxicam AUCT, SS). The Cmax in data set [4] (human, oral, M (meloxicam 15 mg alone), n = 22, plasma, mean ± SD, read-out: meloxicam Cmax, SS) was found to be 2480 ± 880 ng/mL; in data set [4] (human, oral, Z + M (zastaprazan 40 mg and meloxicam 15 mg), n = 22, plasma, mean ± SD, read-out: meloxicam Cmax, SS), 2640 ± 920 ng/mL.
